Measured values published in patent US20230219956A1 (BETTA PHARMACEUTICALS CO.,LTD, priority 2019, published 2023).

Experiments:
[1] = test system: H358 cells; experiment: Cell proliferation assay, H358 cells (Cell-titer Glo); format: cell-based; conditions: Homo sapiens, NCI-H358, 96 h incubation
Method: (§1) Pave the H358 cells on a 96-well ultra-low adsorption plate with 2000 cells and 190 μL/well. After incubating overnight, compound solutions of gradient concentration was prepared, and added 10 μL of DMSO solution of the test compound of each concentration to the cells of each well. The final concentration of the compound is 10000, 3333.3, 1111.1, 370.4, 123.5, 41.2, 13.7, 4.6, 1.5, 0 nM (the final concentration of DMSO is 0.25%). Incubated for 96 h at 37° C. and 5% CO2. 50 μL of Cell-titer Glo working solution was added to each well, shaked and mixed, and incubated at room temperature for 10 minutes. The multi-functional microplate reader read the luminescence value, and converted the luminescence value reading into inhibition percentage.
(§2) Inhibition percentage=(maximum value−reading)/(maximum value−minimum value)*100.
(§3) The “maximum value” was the DMSO control, the “minimum value” indicates the cell-free control group.
(§4) Graphpad Prism software was used to perform curve fitting and obtain IC50 value.
Refer to table 3 for the IC50 data of some compounds in the Examples for inhibiting H358 cells.

[2] = test system: MIA-PACA-2 cells; experiment: Cell proliferation assay, MIA-PACA-2 cells (Cell-titer Glo); format: cell-based; conditions: Homo sapiens, 96 h incubation
Method: as §1, with “the MIA-PACA-2” for “the H358”, “cells into” for “cells on”, “plate at 600 cells, 160” for “plate with 2000 cells and 190”, “added 40” for “added 10”, “10000, 2000, 400, 80, 16, 3.2, 0.64, 0.12, 0.025,” for “10000, 3333.3, 1111.1, 370.4, 123.5, 41.2, 13.7, 4.6, 1.5,”
as §2, §3, §4
Refer to Table 3 for the IC50 data of some compounds in the examples inhibiting MIA-PACA-2 cells.

Compound	IC50 [1] [nM]	IC50 [2] [nM]
C=CC(=O)N1CC2(CCN(c3nc(C4CCN(C5CCN(C(=O)OCC)CC5)CC4)nc4c(OCC(F)(F)F)c(-c5c(C)ccc6[nH]ncc56)c(C=C)cc34)CC2)C1 [Example 82, Ethyl 4-(4-(2-acryloyl-2,7-diazspiro [3.5]nonan-7-yl)-7-(5-methyl-1H-indazole-4-yl)-8-(2,2,2-trifluoroethoxy) 6-vinylquinazolin-2-yl)-[1,4-bipiperidine]-1′-carboxylate]	7.6	12.5
C=CC(=O)N1CC2(CCN(c3nc(C4CCN(CCS(C)(=O)=O)CC4)nc4c(OCC(F)(F)F)c(-c5c(C)ccc6[nH]ncc56)c(C=C)cc34)CC2)C1 [Example 57, 1-(7-(7-(5-methyl-1H-indazol-4-yl)-2-(1-(2-(methylsulfonyl)ethyl)piperidine-4-yl)-8-(2,2,2-trifluoroethoxy)-6-vinylquinazolin-4-yl)-2,7-diazaspiro[3.5]nonan-2-yl) prop-2-en-1-one]	7.3	6.8
C=CC(=O)N1CC2(CCN(c3nc(C4CCN(C)CC4)nc4c(OCC)c(-c5c(C)ccc6[nH]ncc56)c(C=C)cc34)CC2)C1 [Example 11, 1-(7-(8-ethoxy-7-(5-methyl-1H-indazol-4-yl)-2-(1-methylpiperidin-4-yl)-6-vinylquinazolin-4-yl)-2,7-diazaspiro[3.5]nonan-2-yl)prop-2-en-1-one]	4.7	4.8
C=CC(=O)N1CC2(CCN(c3nc(C4CCN(C)CC4)nc4c(OCCOC)c(C5CC5)c(C5CC5)cc34)CC2)C1 [Example 23]	1700	647
C=CC(=O)N1CC2(CCN(c3nc(C4CCN(CCC#N)CC4)nc4c(OCC(F)(F)F)c(-c5c(C)ccc6[nH]ncc56)c(C=C)cc34)CC2)C1 [Example 59, 3-(4-(4-(2-acryloyl-2,7-diazazospiro [3.5]nonan-7-yl)-7-(5-methyl-1H-indazole-4-yl)-8-(2,2,2-trifluoroethoxy)-6-vinylquinazolin-2-yl)piperidin-1-yl) propionitrile]	6.4	6.9
C=CC(=O)N1CC2(CCN(c3nc(C4CN(C5CCCC5)C4)nc4c(OCC(F)(F)F)c(-c5c(C)ccc6[nH]ncc56)c(CC)cc34)CC2)C1 [Example 44, 1-(7-(2-(1-cyclopentyl-azacyclobutane-3-yl)-6-ethyl-7-(5-methyl-1H-indazole-4-yl)-8-(2,2,2-trifluoroethoxy)quinazolin-4-yl)-2,7-diazarospiro [3.5]nonan-2-yl) propyl-2-en-1-one]	155	169
C=CC(=O)N1CC2(CCN(c3nc(C4CN(C5CCOCC5)C4)nc4c(OCC(F)(F)F)c(-c5c(C)ccc6[nH]ncc56)c(CC)cc34)CC2)C1 [Example 42, 1-(7-(6-ethyl-7-(5-methyl-1H-indazole-4-yl)-2-(1-(tetrahydro-2H-pyran-4-yl)azacyclobutane-3-yl)-8-(2,2,2-trifluoroethoxy)quinazolin-4-yl)-2,7-diazspiro [3.5]nonan-2-yl) propyl-2-en-1-one]	19.6	29.6
C=CC(=O)N1CC2(CCN(c3nc(C4CCN(C)CC4)nc4c(OCC5CC5)c(-c5c(C)ccc6[nH]ncc56)c(CC)cc34)CC2)C1 [Example 31]	20.4	91.9
C=CC(=O)N1CC2(CCN(c3nc(C4CCN(C)CC4)nc4c(OCC(F)F)c(-c5c(C)ccc6[nH]ncc56)c(CC)cc34)CC2)C1 [Example 28]	44.7	61.4
C=CC(=O)N1CC2(CCN(c3nc(C4CCN(C)CC4)nc4c(OC)c(-c5c(C)ccc6[nH]ncc56)c(C=C)cc34)CC2)C1 [Example 13, 1-(7-(8-methoxy-7-(5-methyl-1H-indazol-4-yl)-2-(1-methylpiperidin-4-yl)-6-vinylquinazolin-4-yl)-2,7-diazaspiro[3.5]nonan-2-yl)prop-2-en-1-one]	26.3	22
C=CC(=O)N1CC2(CCN(c3nc(C4CCN(C)CC4)nc4c(OCC(F)(F)F)c(-c5c(C)ncc6[nH]ncc56)c(C=C)cc34)CC2)C1 [Example 56, 1-(7-(7-(5-methyl-1H-pyrazolo [3,4-c]pyridin-4-yl)-2-(1-methylpiperidine-4-yl)-8-(2,2,2-trifluoroethoxy)-6-vinylquinazolin-4-yl)-2,7-diazaspiro[3.5]nonan-2-yl) prop-2-en-1-one]	2520	2580
C=CC(=O)N1CC2(CCN(c3nc(C4CCN(C)CC4)nc4c(OCC(F)(F)F)c(-c5c(C)ccc6[nH]ncc56)c(C5CC5)cc34)CC2)C1 [Example 16]	3.2	4.8
C=CC(=O)N1CC2(CCN(c3nc(C4CCN(C)CC4)nc4c(OCC(F)(F)F)c(-c5c(C)cnc6[nH]ncc56)c(C=C)cc34)CC2)C1 [Example 53, 1-(7-(7-(5-methyl-1H-pyrazolo[3,4-b]pyridin-4-yl)-2-(1-methylpiperidine-4-yl)-8-(2,2,2-trifluoroethoxy)-6-vinylquinazolin-4-yl)-2,7-diazaspiro[3.5]nonan-2-yl)prop-2-en-1-one]	163	105
C=CC(=O)N1CC2(CCN(c3nc(C4CCN(C5CC(O)C5)CC4)nc4c(OCC(F)(F)F)c(-c5c(C)ccc6[nH]ncc56)c(C=C)cc34)CC2)C1 (stereo not shown) [Example 80]	14.9	46.1
C=CC(=O)N1CC2(CCN(c3nc(C4CCN(C)CC4)nc4c(OCC(F)F)c(-c5c(C)ccc6[nH]ncc56)c(C=C)cc34)CC2)C1 [Example 48, 1-(7-(8-(2,2-difluoroethoxy)-7-(5-methyl-1H-indazol-4-yl)-2-(1-methylpiperidin-4-yl)-6-vinylquinazolin-4-yl)-2,7-diazspiro [3.5]nonan-2-yl) propyl-2-en-1-one]	11.5	9.8
C=CC(=O)N1CC2(CCN(c3nc(C4CCNCC4)nc4c(OCC(F)(F)F)c(-c5c(C)ccc6[nH]ncc56)c(C=C)cc34)CC2)C1 [Example 63, 1-(7-(7-(5-methyl-1H-indazol-4-yl)-2-(piperidin-4-yl)-8-(2,2,2-trifluoroethoxy)-6-vinylquinazoline-4-yl)-2,7-diazaspiro[3.5]nonan-2-yl)prop-2-en-1-one]	187	406
C=CC(=O)N1CC2(CCN(c3nc(C4CCN(C(=O)OC)CC4)nc4c(OCC(F)(F)F)c(-c5c(C)ccc6[nH]ncc56)c(C=C)cc34)CC2)C1 [Example 62, Methyl 4-(4-(2-acryloyl-2,7-diazspiro [3.5]nonan-7-yl)-7-(5-methyl-1H-indazole-4-yl)-8-(2,2,2-trifluoroethoxy)-6-vinylquinazolin-2-yl) piperidine-1-carboxylic acid]	29.3	43.5
C=CC(=O)N1CC2(CCN(c3nc(C4CCN(C5CCN(C(C)=O)CC5)CC4)nc4c(OCC(F)(F)F)c(-c5c(C)ccc6[nH]ncc56)c(C=C)cc34)CC2)C1 [Example 72, 1-(7-(2-(1acetyl-[1,4'-bipiperidine]-4-yl)-7-(5-methyl-1H-indazole-4-yl)-8-(2,2,2-trifluoroethoxy)-6-vinylquinazolin-4-yl)-2,7-diazspiro [3.5]nonan-2-yl) propyl-2-en-1-one]	5.2	5.9
C=CC(=O)N1CC2(CCN(c3nc(C4CCN(C5CCOC5)CC4)nc4c(OCC(F)(F)F)c(-c5c(C)ccc6[nH]ncc56)c(C=C)cc34)CC2)C1 (stereo not shown) [Example 79, 1-(7-(7-(5-methyl-1H-indazol-4-yl)-2-(1-(tetrahydrofuran-3-yl)piperidin-4-yl)-8-(2,2,2-trifluoroethoxy)-6-vinylquinazolin-4-yl)-2,7-diazspiro [3.5]nonan-2-yl) propyl-2-en-1-one]	2.7	3.5
C=CC(=O)N1CC2(CCN(c3nc(C4CCN(C)CC4)nc4c(OCC)c(-c5c(C)ccc6[nH]ncc56)c(Cl)cc34)CC2)C1 [Example 10, 1-(7-(6-chloro-8-ethoxy-7-(5-methyl-1H-indazol-4-yl)-2-(1-methylpiperidine-4-yl)-quinazolin-4-yl)-2,7-diazaspiro[3.5]nonan-2-yl)prop-2-en-1-one]	–	25
C=CC(=O)N1CC2(CCN(c3nc(C4CCN(C)CC4)nc4c(Oc5c(C)ccc6[nH]ncc56)cccc34)CC2)C1 [Example 54]	–	9600
C=CC(=O)N1CC2(CCN(c3nc(C4CCN(C)CC4)nc4c(C)c(-c5c(C)ccc6[nH]ncc56)c(C=C)cc34)CC2)C1 [Example 15, 1-(7-(8-methyl-7-(5-methyl-1H-indazol-4-yl)-2-(1-methylpiperidin-4-yl)-6-vinylquinazolin-4-yl)-2,7-diazaspiro[3.5]nonan-2-yl)prop-2-en-1-one]	–	50.5
C=CC(=O)N1CC2(CCN(c3nc(C4CCN(C)CC4)nc4c(OCC(F)(F)F)c(-c5cc(F)cc(OC)c5)c(C5CC5)cc34)CC2)C1 [Example 21]	2720	–
C=CC(=O)N1CC2(CCN(c3nc(C4CCN(C)CC4)nc4c(OCC(F)(F)F)c(-c5ccc6cn[nH]c6c5)c(C5CC5)cc34)CC2)C1 [Example 19]	–	2290
